Reference: patent US10294202B2, “Pyrrolidinones as herbicides” (FMC Corporation, priority 2013, dated 2019)

Columns and labels:
ragweed = test: Test A pre-/postemergence herbicide test; type: in vivo, Ambrosia elatior
Method in brief: (§1)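 Visual injury ratings, 0 = no effect, 100 = complete control, taken ~10 days after treatment against untreated greenhouse controls. Preemergence: directed soil spray onto seeded loam/sand pots. Postemergence: spray onto plants at one- to two-leaf stage, 2–10 cm tall.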

blackgrass = test: Test A postemergence herbicide test; type: in vivo, Alopecurus myosuroides
Method in brief: (§2)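 Injury was rated visually about 10 days after treatment on a 0 (no effect) to 100 (complete control) scale, compared with untreated plants. Test chemicals were sprayed postemergence onto greenhouse plants 2–10 cm high at one to two leaves, grown in a loam–sand blend.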

galium = test: Test A postemergence herbicide test; type: in vivo, Galium aparine
Method in brief: as §2

pigweed = test: Test A pre-/postemergence herbicide test; type: in vivo, Amaranthus retroflexus
Method in brief: as §1

barnyardgrass [1] = test: Test A pre-/postemergence herbicide test; type: in vivo, Echinochloa crus-galli
Method in brief: as §1

sedge, umbrella = test: Test B flooded paddy test; type: in vivo, Cyperus difformis; settings: 500 g ai/ha, Flood; scale of 0 to 100 where 0 is no effect and 100 is complete control
Method in brief: (§3)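 Visual ratings from 0, meaning no effect, up to 100, meaning complete control, were made by comparison with untreated controls 13 to 15 days after treatment. Test compounds went straight into floodwater standing 3 cm over the soil of pots holding 2-leaf seedlings.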

rice = test: Test B flooded paddy test; type: in vivo, Oryza sativa; settings: 500 g ai/ha, Flood; scale of 0 to 100 where 0 is no effect and 100 is complete control
Method in brief: as §3

barnyardgrass [2] = test: Test B flooded paddy test; type: in vivo, Echinochloa crus-galli; settings: 500 g ai/ha, Flood; scale of 0 to 100 where 0 is no effect and 100 is complete control
Method in brief: as §3

ducksalad = test: Test B flooded paddy test; type: in vivo, Heteranthera limosa; settings: 500 g ai/ha, Flood; scale of 0 to 100 where 0 is no effect and 100 is complete control
Method in brief: as §3

giant foxtail = test: Test A pre-/postemergence herbicide test; type: in vivo, Setaria faberii
Method in brief: as §1

kochia = test: Test A pre-/postemergence herbicide test; type: in vivo, Kochia scoparia
Method in brief: as §1

corn = test: Test A pre-/postemergence herbicide test; type: in vivo, Zea mays; settings: Postemergence
Method in brief: as §1

wheat = test: Test A pre-/postemergence herbicide test; type: in vivo, Triticum aestivum; settings: Postemergence
Method in brief: as §1

ryegrass, Italian = test: Test A pre-/postemergence herbicide test; type: in vivo, Lolium multiflorum
Method in brief: as §1

[3] = Postemergence, 125 g ai/ha, visual rating on 0 to 100 scale (0 no effect, 100 complete control), approx. 10 days
[4] = Postemergence, 500 g ai/ha, 0 to 100 scale (0 no effect, 100 complete control)
[5] = Preemergence, 125 g ai/ha, 0 to 100 scale where 0 is no effect and 100 is complete control
[6] = Preemergence, 500 g ai/ha, visual rating on 0 to 100 scale (0 no effect, 100 complete control)
[7] = 125 g ai/ha, visual rating on 0 to 100 scale (0 no effect, 100 complete control), approx. 10 days
[8] = 500 g ai/ha, 0 to 100 scale (0 no effect, 100 complete control)

SMILES | Plant response rating, Ragweed (ragweed; [3]) | Plant response rating, Ragweed (ragweed; [4]) | Plant response rating, Ragweed (ragweed; [5]) | Ragweed plant response rating (ragweed; [6]) | Plant response rating, Blackgrass (blackgrass; [7]) | Plant response rating, Blackgrass (blackgrass; [8]) | Plant response rating, Galium (galium; [7]) | Plant response rating, Galium (galium; [8]) | Plant response rating, Pigweed (pigweed; [3]) | Plant response rating, Pigweed (pigweed; [4]) | Plant response rating, Pigweed (pigweed; [5]) | Pigweed plant response rating (pigweed; [6]) | Plant response rating, Barnyardgrass (barnyardgrass [1]; [3]) | Plant response rating, Barnyardgrass (barnyardgrass [1]; [4]) | Plant response rating, Barnyardgrass (barnyardgrass [1]; [5]) | Barnyardgrass plant response rating (barnyardgrass [1]; [6]) | Plant response rating, Sedge, Umbrella (sedge, umbrella) | Plant response rating, Rice (rice) | Plant response rating, Barnyardgrass (barnyardgrass [2]) | Plant response rating, Ducksalad (ducksalad) | further results
O=C1NCC(c2cccc(Br)c2)C1C(=O)Nc1ccc(F)cc1F (stereo not drawn) [Compound 308] | 0 | 0 | 0 | 0 | 50 | 70 | 0 | 0 | 0 | 0 | 0 | 0 | 70 | 70 | 70 | 80 | 0 | 0 | 70 | 90 | Plant response rating, Foxtail, Giant (giant foxtail; [3]): 70; Plant response rating, Foxtail, Giant (giant foxtail; [4]): 80; Plant response rating, Foxtail, Giant (giant foxtail; [5]): 80; Foxtail, Giant plant response rating (giant foxtail; [6]): 90; Plant response rating, Kochia (kochia; [3]): 0; Plant response rating, Kochia (kochia; [4]): 0; Plant response rating, Kochia (kochia; [5]): 0; Kochia plant response rating (kochia; [6]): 0; Plant response rating, Corn (corn; [7]): 0; Plant response rating, Corn (corn; [8]): 10; Plant response rating, Wheat (wheat; [7]): 0; Plant response rating, Wheat (wheat; [8]): 20; Plant response rating, Ryegrass, Italian (ryegrass, Italian; [3]): 0; Plant response rating, Ryegrass, Italian (ryegrass, Italian; [4]): 0; Plant response rating, Ryegrass, Italian (ryegrass, Italian; [5]): 0; Ryegrass, Italian plant response rating (ryegrass, Italian; [6]): 0
O=C1NCC(c2cccc(C(F)(F)F)c2)C1C(=O)Nc1cccc(C(F)(F)F)c1 (stereo not drawn) [Compound 313] | 0 | 0 | 0 | 0 | 0 | 0 | 0 | 0 | 0 | 0 | 0 | 0 | 20 | 80 | 50 | 80 | 0 | 0 | 60 | 0 | Plant response rating, Foxtail, Giant (giant foxtail; [3]): 40; Plant response rating, Foxtail, Giant (giant foxtail; [4]): 70; Plant response rating, Foxtail, Giant (giant foxtail; [5]): 30; Foxtail, Giant plant response rating (giant foxtail; [6]): 80; Plant response rating, Kochia (kochia; [3]): 0; Plant response rating, Kochia (kochia; [4]): 0; Plant response rating, Kochia (kochia; [5]): 0; Kochia plant response rating (kochia; [6]): 0; Plant response rating, Corn (corn; [7]): 0; Plant response rating, Corn (corn; [8]): 0; Plant response rating, Wheat (wheat; [7]): 0; Plant response rating, Wheat (wheat; [8]): 0; Plant response rating, Ryegrass, Italian (ryegrass, Italian; [3]): 0; Plant response rating, Ryegrass, Italian (ryegrass, Italian; [4]): 0; Plant response rating, Ryegrass, Italian (ryegrass, Italian; [5]): 0; Ryegrass, Italian plant response rating (ryegrass, Italian; [6]): 0
O=C1NCC(c2cccc(I)c2)C1C(=O)Nc1ccccc1C(F)(F)F (stereo not drawn) [Compound 328] | 0 | 0 | 0 | 0 | 30 | 40 | 20 | 50 | 0 | 0 | 0 | 0 | 30 | 80 | 40 | 80 | 0 | 0 | 0 | 35 | Plant response rating, Foxtail, Giant (giant foxtail; [3]): 70; Plant response rating, Foxtail, Giant (giant foxtail; [4]): 80; Plant response rating, Foxtail, Giant (giant foxtail; [5]): 80; Foxtail, Giant plant response rating (giant foxtail; [6]): 90; Plant response rating, Kochia (kochia; [3]): 0; Plant response rating, Kochia (kochia; [4]): 20; Plant response rating, Kochia (kochia; [5]): 0; Kochia plant response rating (kochia; [6]): 20; Plant response rating, Corn (corn; [7]): 0; Plant response rating, Corn (corn; [8]): 0; Plant response rating, Wheat (wheat; [7]): 0; Plant response rating, Wheat (wheat; [8]): 0; Plant response rating, Ryegrass, Italian (ryegrass, Italian; [3]): 0; Plant response rating, Ryegrass, Italian (ryegrass, Italian; [4]): 20; Plant response rating, Ryegrass, Italian (ryegrass, Italian; [5]): 0; Ryegrass, Italian plant response rating (ryegrass, Italian; [6]): 40
O=C1NCC(c2cccc(-n3ccc(C(F)(F)F)n3)c2)C1C(=O)Nc1ccccc1C(F)(F)F (stereo not drawn) [Compound 329] | 0 | 0 | 0 | 0 | 0 | 0 | 0 | 0 | 0 | 0 | 0 | 0 | 0 | 0 | 0 | 0 | 0 | 0 | 0 | 0 | Plant response rating, Foxtail, Giant (giant foxtail; [3]): 0; Plant response rating, Foxtail, Giant (giant foxtail; [4]): 30; Plant response rating, Foxtail, Giant (giant foxtail; [5]): 0; Foxtail, Giant plant response rating (giant foxtail; [6]): 60; Plant response rating, Kochia (kochia; [3]): 0; Plant response rating, Kochia (kochia; [4]): 0; Plant response rating, Kochia (kochia; [5]): 0; Kochia plant response rating (kochia; [6]): 0; Plant response rating, Corn (corn; [7]): 0; Plant response rating, Corn (corn; [8]): 0; Plant response rating, Wheat (wheat; [7]): 0; Plant response rating, Wheat (wheat; [8]): 0; Plant response rating, Ryegrass, Italian (ryegrass, Italian; [3]): 0; Plant response rating, Ryegrass, Italian (ryegrass, Italian; [4]): 0; Plant response rating, Ryegrass, Italian (ryegrass, Italian; [5]): 0; Ryegrass, Italian plant response rating (ryegrass, Italian; [6]): 0
O=C1NCC(c2cccc(Oc3ccccc3)c2)C1C(=O)Nc1ccccc1F (stereo not drawn) [Compound 330] | 0 | 0 | 0 | 0 | 0 | 0 | 20 | 30 | 0 | 0 | 0 | 20 | 60 | 60 | 60 | 70 | 0 | 0 | 0 | 100 | Plant response rating, Foxtail, Giant (giant foxtail; [3]): 80; Plant response rating, Foxtail, Giant (giant foxtail; [4]): 80; Plant response rating, Foxtail, Giant (giant foxtail; [5]): 50; Foxtail, Giant plant response rating (giant foxtail; [6]): 80; Plant response rating, Kochia (kochia; [3]): 0; Plant response rating, Kochia (kochia; [4]): 0; Plant response rating, Kochia (kochia; [5]): 20; Kochia plant response rating (kochia; [6]): 20; Plant response rating, Corn (corn; [7]): 0; Plant response rating, Corn (corn; [8]): 0; Plant response rating, Wheat (wheat; [7]): 0; Plant response rating, Wheat (wheat; [8]): 0; Plant response rating, Ryegrass, Italian (ryegrass, Italian; [3]): 0; Plant response rating, Ryegrass, Italian (ryegrass, Italian; [4]): 0; Plant response rating, Ryegrass, Italian (ryegrass, Italian; [5]): 30; Ryegrass, Italian plant response rating (ryegrass, Italian; [6]): 40
